Laboratory results published in ChEMBL document CHEMBL4261573, “Synthesis and growth-inhibitory activities of imidazo[5,1-d]-1,2,3,5-tetrazine-8-carboxamides related to the anti-tumour drug temozolomide, with appended silicon, benzyl and heteromethyl groups at the 3-position” (Medchemcomm, 2018).

What was measured:
[1] = Drug level in deuterated phosphate buffer/D2O at pD 7 treated with 3-Trimethylsilylmethylimidazotetrazine measured every 15 mins for 12 to 18 hrs by 1H NMR method
[2] = Drug level in deuterated phosphate buffer/D2O at pD 7 treated with 3-(2-Trimethylsilylethoxy)methylimidazotetrazine measured every 15 mins for 12 to 18 hrs by 1H NMR method
SNB-19 [3] = assay: Growth inhibition of vehicle-transfected human SNB19 cells after 7 days by MTT assay; format: functional; details: SNB-19, 168 h
SNB-19 [4] = assay: Growth inhibition of MGMT-transfected human SNB19 cells expressing MGMT after 7 days by MTT assay; format: functional; details: SNB-19, 168 h
U373 MG [5] = assay: Growth inhibition of vehicle-transfected human U373 cells after 7 days by MTT assay; format: functional, U-373MG ATCC; details: 168 h
U373 MG [6] = assay: Growth inhibition of MGMT-transfected human U373 cells expressing MGMT after 7 days by MTT assay; format: functional, U-373MG ATCC; details: 168 h

Q: For `NC(=O)c1[nH]cnc1N`, which Drug metabolism [1] is on record?
A: Metabolite_Detected

Q: And the Drug metabolism [2]?
A: Metabolite_Detected

Q: Which Drug metabolism [2] does the source give for `C[Si](C)(C)CCO` here?
A: Metabolite_Detected

Q: With `C[C@H](c1ccccc1)n1nnc2c(C(N)=O)ncn2c1=O` as the compound, how does the GI50 (SNB-19 [3]) read?
A: 32.7 µM

Q: What about the GI50 (SNB-19 [4]) of the same compound?
A: 49.7 µM

Q: And the GI50 (U373 MG [5])?
A: > 50 µM

Q: What about the GI50 (U373 MG [6]) of the same compound?
A: > 50 µM

Q: For `COc1ccc(Cn2nnc3c(C(N)=O)ncn3c2=O)cc1OC`, which GI50 (SNB-19 [3]) is on record?
A: > 50 µM

Q: What about the GI50 (SNB-19 [4]) of the same compound?
A: > 50 µM

Q: And the GI50 (U373 MG [5])?
A: > 50 µM

Q: And the GI50 (U373 MG [6])?
A: > 50 µM

Q: Which GI50 (SNB-19 [3]) does the source give for `NC(=O)c1nc[nH]c1N/N=N/Cc1ccoc1` here?
A: > 50 µM

Q: What about the GI50 (SNB-19 [4]) of the same compound?
A: > 50 µM

Q: What about the GI50 (U373 MG [5]) of the same compound?
A: > 50 µM

Q: And the GI50 (U373 MG [6])?
A: > 50 µM

Q: Which GI50 (SNB-19 [3]) does the source give for `NC(=O)c1ncn2c(=O)n(Cc3c[nH]nn3)nnc12` here?
A: > 50 µM

Q: What about the GI50 (SNB-19 [4]) of the same compound?
A: > 50 µM

Q: And the GI50 (U373 MG [5])?
A: > 50 µM

Q: And the GI50 (U373 MG [6])?
A: > 50 µM

Q: Which results are given for `NC(=O)c1ncn2c(=O)n(Cc3ccco3)nnc12`?
A: GI50 (SNB-19 [3]): > 50 µM; GI50 (SNB-19 [4]): > 50 µM; GI50 (U373 MG [5]): > 50 µM; GI50 (U373 MG [6]): > 50 µM

Q: For `NC(=O)c1nc[nH]c1N/N=N/Cc1ccco1`, which GI50 (SNB-19 [3]) is on record?
A: > 50 µM

Q: What about the GI50 (SNB-19 [4]) of the same compound?
A: > 50 µM

Q: And the GI50 (U373 MG [5])?
A: > 50 µM

Q: What about the GI50 (U373 MG [6]) of the same compound?
A: > 50 µM

Q: For `NC(=O)c1ncn2c(=O)n(Cc3ccsc3)nnc12`, which GI50 (SNB-19 [3]) is on record?
A: > 50 µM

Q: What about the GI50 (SNB-19 [4]) of the same compound?
A: > 50 µM

Q: And the GI50 (U373 MG [5])?
A: > 50 µM

Q: What about the GI50 (U373 MG [6]) of the same compound?
A: > 50 µM

Q: Which GI50 (SNB-19 [3]) does the source give for `C[Si](C)(C)Cn1nnc2c(C(N)=O)ncn2c1=O` here?
A: 28.4 µM

Q: What about the GI50 (SNB-19 [4]) of the same compound?
A: 302 µM

Q: What about the GI50 (U373 MG [5]) of the same compound?
A: 45.6 µM

Q: And the GI50 (U373 MG [6])?
A: 250 µM

Q: With `NC(=O)c1ncn2c(=O)n(Cc3ccccc3)nnc12` as the compound, how does the GI50 (SNB-19 [3]) read?
A: > 50 µM

Q: What about the GI50 (SNB-19 [4]) of the same compound?
A: > 50 µM

Q: What about the GI50 (U373 MG [5]) of the same compound?
A: > 50 µM

Q: And the GI50 (U373 MG [6])?
A: > 50 µM

Q: What does the source list for `NC(=O)c1nc[nH]c1N/N=N/Cc1ccccc1`?
A: GI50 (SNB-19 [3]): > 50 µM; GI50 (SNB-19 [4]): > 50 µM; GI50 (U373 MG [5]): > 50 µM; GI50 (U373 MG [6]): > 50 µM

Q: For `COc1ccc(Cn2nnc3c(C(N)=O)ncn3c2=O)c(OC)c1`, which GI50 (SNB-19 [3]) is on record?
A: > 50 µM

Q: And the GI50 (SNB-19 [4])?
A: > 50 µM

Q: And the GI50 (U373 MG [5])?
A: > 50 µM

Q: What about the GI50 (U373 MG [6]) of the same compound?
A: > 50 µM

Q: Which GI50 (SNB-19 [3]) does the source give for `COc1ccc([C@@H](C)n2nnc3c(C(N)=O)ncn3c2=O)cc1` here?
A: > 50 µM

Q: What about the GI50 (SNB-19 [4]) of the same compound?
A: > 50 µM

Q: And the GI50 (U373 MG [5])?
A: > 50 µM

Q: What about the GI50 (U373 MG [6]) of the same compound?
A: > 50 µM

Q: For `C=O.O`, which Drug metabolism [2] is on record?
A: Metabolite_Detected

Q: For `COc1cc(Cn2nnc3c(C(N)=O)ncn3c2=O)cc(OC)c1OC`, which GI50 (SNB-19 [3]) is on record?
A: > 50 µM

Q: And the GI50 (SNB-19 [4])?
A: > 50 µM

Q: What about the GI50 (U373 MG [5]) of the same compound?
A: > 50 µM

Q: And the GI50 (U373 MG [6])?
A: > 50 µM

Q: Which results are given for `Cc1noc(Cn2nnc3c(C(N)=O)ncn3c2=O)n1`?
A: GI50 (SNB-19 [3]): > 50 µM; GI50 (SNB-19 [4]): > 50 µM; GI50 (U373 MG [5]): > 50 µM; GI50 (U373 MG [6]): > 50 µM

Q: What does the source list for `NC(=O)c1nc[nH]c1N/N=N/CCc1ccccc1`?
A: GI50 (SNB-19 [3]): > 50 µM; GI50 (SNB-19 [4]): > 50 µM; GI50 (U373 MG [5]): > 50 µM; GI50 (U373 MG [6]): > 50 µM

Q: With `NC(=O)c1ncn2c(=O)n(C(c3ccccc3)c3ccccc3)nnc12` as the compound, how does the GI50 (SNB-19 [3]) read?
A: > 50 µM

Q: What about the GI50 (SNB-19 [4]) of the same compound?
A: > 50 µM

Q: And the GI50 (U373 MG [5])?
A: > 50 µM

Q: And the GI50 (U373 MG [6])?
A: > 50 µM

Q: For `Cc1cc(Cn2nnc3c(C(N)=O)ncn3c2=O)on1`, which GI50 (SNB-19 [3]) is on record?
A: > 50 µM

Q: What about the GI50 (SNB-19 [4]) of the same compound?
A: > 50 µM

Q: And the GI50 (U373 MG [5])?
A: > 50 µM

Q: What about the GI50 (U373 MG [6]) of the same compound?
A: > 50 µM

Q: For `COc1ccccc1Cn1nnc2c(C(N)=O)ncn2c1=O`, which GI50 (SNB-19 [3]) is on record?
A: > 50 µM

Q: And the GI50 (SNB-19 [4])?
A: > 50 µM

Q: What about the GI50 (U373 MG [5]) of the same compound?
A: > 50 µM

Q: What about the GI50 (U373 MG [6]) of the same compound?
A: > 50 µM

Q: With `C[C@@H](c1ccccc1)n1nnc2c(C(N)=O)ncn2c1=O` as the compound, how does the GI50 (SNB-19 [3]) read?
A: 34.7 µM

Q: And the GI50 (SNB-19 [4])?
A: 45.3 µM

Q: And the GI50 (U373 MG [5])?
A: > 50 µM

Q: What about the GI50 (U373 MG [6]) of the same compound?
A: > 50 µM

Q: What does the source list for `NC(=O)c1nc[nH]c1N/N=N/Cc1cccs1`?
A: GI50 (SNB-19 [3]): > 50 µM; GI50 (SNB-19 [4]): > 50 µM; GI50 (U373 MG [5]): > 50 µM; GI50 (U373 MG [6]): > 50 µM

Q: With `C[Si](C)(C)CCOCn1nnc2c(C(N)=O)ncn2c1=O` as the compound, how does the GI50 (SNB-19 [3]) read?
A: 29.9 µM

Q: What about the GI50 (SNB-19 [4]) of the same compound?
A: 27.5 µM

Q: What about the GI50 (U373 MG [5]) of the same compound?
A: 25.3 µM

Q: And the GI50 (U373 MG [6])?
A: 24.2 µM

Q: For `NC(=O)c1ncn2c(=O)n(CCc3ccccc3)nnc12`, which GI50 (SNB-19 [3]) is on record?
A: > 50 µM

Q: And the GI50 (SNB-19 [4])?
A: > 50 µM

Q: And the GI50 (U373 MG [5])?
A: > 50 µM

Q: What about the GI50 (U373 MG [6]) of the same compound?
A: > 50 µM

Q: With `COc1cccc(Cn2nnc3c(C(N)=O)ncn3c2=O)c1` as the compound, how does the GI50 (SNB-19 [3]) read?
A: > 50 µM

Q: And the GI50 (SNB-19 [4])?
A: > 50 µM

Q: And the GI50 (U373 MG [5])?
A: > 50 µM

Q: What about the GI50 (U373 MG [6]) of the same compound?
A: > 50 µM

Q: With `CC[C@@H](c1ccccc1)n1nnc2c(C(N)=O)ncn2c1=O` as the compound, how does the GI50 (SNB-19 [3]) read?
A: > 50 µM

Q: What about the GI50 (SNB-19 [4]) of the same compound?
A: > 50 µM

Q: What about the GI50 (U373 MG [5]) of the same compound?
A: > 50 µM

Q: And the GI50 (U373 MG [6])?
A: > 50 µM

Q: Which GI50 (SNB-19 [3]) does the source give for `COc1ccc(Cn2nnc3c(C(N)=O)ncn3c2=O)cc1` here?
A: > 50 µM

Q: And the GI50 (SNB-19 [4])?
A: > 50 µM

Q: What about the GI50 (U373 MG [5]) of the same compound?
A: > 50 µM

Q: And the GI50 (U373 MG [6])?
A: > 50 µM

Q: What does the source list for `NC(=O)c1nc[nH]c1N/N=N/Cc1ccsc1`?
A: GI50 (SNB-19 [3]): > 50 µM; GI50 (SNB-19 [4]): > 50 µM; GI50 (U373 MG [5]): > 50 µM; GI50 (U373 MG [6]): > 50 µM

Q: For `NC(=O)c1ncn2c(=O)n(Cc3cccs3)nnc12`, which GI50 (SNB-19 [3]) is on record?
A: > 50 µM

Q: And the GI50 (SNB-19 [4])?
A: > 50 µM

Q: What about the GI50 (U373 MG [5]) of the same compound?
A: > 50 µM

Q: And the GI50 (U373 MG [6])?
A: > 50 µM

Q: What does the source list for `CC(c1ccc(Br)cc1)n1nnc2c(C(N)=O)ncn2c1=O` (racemic)?
A: GI50 (SNB-19 [3]): > 50 µM; GI50 (SNB-19 [4]): > 50 µM; GI50 (U373 MG [5]): > 50 µM; GI50 (U373 MG [6]): > 50 µM

Q: Which Drug metabolism [1] does the source give for `CO` [METHYL ALCOHOL] here?
A: Metabolite_Detected

Q: For `COP(=O)(O)O` [PHOSPHORIC ACID MONOMETHYL ESTER], which Drug metabolism [1] is on record?
A: Metabolite_Detected

Q: For `Cn1nnc2c(C(N)=O)ncn2c1=O` [TEMOZOLOMIDE], which GI50 (SNB-19 [3]) is on record?
A: 35.7 µM

Q: And the GI50 (SNB-19 [4])?
A: 470 µM

Q: What about the GI50 (U373 MG [5]) of the same compound?
A: 68 µM

Q: And the GI50 (U373 MG [6])?
A: 369 µM
